Paper PMC10330721, “Chemo-enzymatic synthesis and biological activity evaluation of propenylbenzene derivatives” (Frontiers in Microbiology, 2023)
In brackets after ≈: the same amount, converted by molar mass. Like-named read-outs stand apart in the source and are kept apart here.

Key:
RBCs membrane = assay: Fluorescence spectroscopy of the RBCs membrane (DPH probe anisotropy); assay type: cell-based, human; conditions: for Fluorescence anisotropy of the DPH probe: membranes of RBCs, 37 °C
Description: Using the DPH probe, the anisotropy values of cell membranes of RBCs modified with the test compounds were measured. RBCs for this analysis were prepared according to the method described in subsection 2.5.3. Then, the DPH probe was added to RBCs with a haematocrit of 0.2%. The final concentration of the probe in the sample was 1.3 μM. The mixture was incubated protected from light at 37°C for 30 min. Then, the compounds dissolved in ethanol were added. The compounds were tested at 20, 60, and 100 μM concentrations. Samples with compounds and control samples with alcohol of the appropriate concentration were incubated at 37°C for 1 h. Measurements in triplicate were made in quartz cuvettes using a CARY Eclipse fluorimeter (Varian, San Diego, CA, United States) at 37°C. The excitation wavelength for the DPH probe is λexc = 360 nm and the emission wavelength is λem = 426 nm.

C. albicans 636/20 = assay: Fungistatic activity assay, broth microdilution; assay type: cell-based; conditions: Candida albicans, 636/20, 24 h
Description: (§1) Fungistatic activity was determined using Candida albicans ATCC 90028 from the American Type Culture Collection (ATCC, Manassas, VA, United States), and clinical isolates, C. albicans 636/20, C. albicans 595/20, and C. albicans 38 obtained from Wrocław Medical University, Wrocław, Poland.
(§2) All compounds were tested for biological activity against C. albicans ATTC 90028, C. albicans 636/20, C. albicans 595/20, and C. albicans 38 using the broth microdilution method. YPD medium (20 g glucose, 20 g Bacto Peptone, 10 g yeast extract, and 1 L of distilled water, pH 6.5) was used for the tests. The compound solutions were prepared in DMSO and diluted in YPD to obtain final concentrations in the range of 10–250 μg/mL. One hundred microlitres of each solution was pipetted into the wells of a 96-well microtiter plate. The inoculum was standardized to 0.5 McFarland standard and then diluted to obtain a final suspension with a cell density of 0.5–2.5 × 10^3 CFU/mL. The inoculum size was 100 μL. The positive control comprised DMSO added in the same concentration as the tested compounds in the inoculum, whereas the negative control consisted of DMSO diluted in the broth without the addition of inoculum. The microtiter plates were incubated in a Biosan PST-60 HL Plate Shaker-Thermostat (Riga, Latvia) at 35°C under shaking at 1,000 rpm for 24 h.

C. albicans 595/20 = assay: Fungistatic activity assay, broth microdilution; assay type: cell-based; conditions: Candida albicans
Description: as §1, §2

Caco-2 cells = assay: Resazurin-based viability assay; assay type: cell-based, human; conditions: 24 h, 1, 50 and 200 μg/mL
Description: (§3) The human HepG2 and Caco-2 cell lines were obtained from the American Type Culture Collection (HB-8065™ and HTB-37™) and the MG-63 cell line was obtained from the European Collection of Authenticated Cell Cultures (Merck, Poznań, Poland). HepG2 cells were cultured in Dulbecco’s modified Eagle’s Medium - low glucose (Merck) supplemented with 10% foetal bovine serum (FBS) (Merck). Caco-2 cells were cultured in Dulbecco’s modified Eagle’s medium - high glucose (Merck) supplemented with 10% FBS, 2% HEPES buffer (Thermo Fisher Scientific, Warszawa, Poland), 1% Penicillin–Streptomycin-Amphotericin B Solution (100×, Merck), 1% MEM solution (100×, Thermo Fisher Scientific), and 1% Gentamycin Solution (10 mg/mL, Merck). MG-63 cells were cultured in Minimum Essential Medium (Merck) supplemented with 10% FBS. All cells were cultured in an atmosphere of 5% CO2 at 37°C.
(§4) HepG2, Caco-2, and […] were seeded in 96-well plates at 20,000 cells per well, and MG-63 cells at 10,000 cells per well, as described previously ([Marycz et al., 2012]; [Kornicka et al., 2017]). The tested compounds were dissolved in ethanol at 10 mg/mL. The concentrations were then adjusted to 1, 50, and 200 μg/mL in culture medium. Four controls were prepared: no ethanol added, and 0.01, 0.5, and 2% EtOH. The cells were treated with the compounds for 24 h. Then, cell viability was evaluated using the resazurin-based assay kit (TOX8), as described previously ([Grzesiak et al., 2011]; [Marycz et al., 2018]). The culture medium was replaced with medium containing 10% resazurin dye. The cells were incubated at 37°C in an atmosphere of 5% CO2 for 2 h. Absorbance levels were measured spectrophotometrically (Epoch) at a wavelengths of 600 nm for resazurin and 690 nm as a reference.

[1] = Haemolytic activity assay; assay type: cell-based; conditions: human red blood cells (RBCs) from healthy donors, 37°C, read-out: Percentage of haemolysis
Description: This test is based on comparison of the cytotoxicity of all tested compounds in human red blood cells (RBCs) with that in a control group. RBCs for this method were obtained from a blood center from examined and healthy donors. The compounds were tested at 10, 20, 40, 60, 80, and 100 μM concentrations. The control sample contained only ethanol in the same volume as the test samples. […] The samples were incubated at 37°C for 1 h. Then, the absorbance at 540 nm was measured using a UV–Vis spectrophotometer (Specord 40, Analytik Jena, Jena, Germany). The haemolytic activity of the compounds was determined as the ratio of the absorbance of haemoglobin in the test samples to that in completely haemolyzed cells multiplied by 100%.

MG63 cells = assay: Resazurin-based viability assay; assay type: cell-based, human; conditions: 24 h, 1, 50 and 200 μg/mL
Description: as §3, with “HepG2” for “The human HepG2 and Caco-2 cell lines were obtained from the American Type Culture Collection (HB-8065™ and HTB-37™) and the MG-63 cell line was obtained from the European Collection of Authenticated Cell Cultures (Merck, Poznań, Poland). HepG2”
The tested compounds were dissolved in ethanol at 10 mg/mL. The concentrations were then adjusted to 1, 50, and 200 μg/mL in culture medium. Four controls were prepared: no ethanol added, and 0.01, 0.5, and 2% EtOH. The cells were treated with the compounds for 24 h. […] The culture medium was replaced with medium containing 10% resazurin dye. The cells were incubated at 37°C in an atmosphere of 5% CO2 for 2 h. Absorbance levels were measured spectrophotometrically (Epoch) at a wavelengths of 600 nm for resazurin and 690 nm as a reference.

C. albicans strains = assay: Fungistatic activity assay, broth microdilution, values given over several strains; assay type: cell-based, Candida albicans; conditions: Candida albicans, read-out: MIC50 (over three strains)
Description: as §1, §2

HepG2 cells = assay: Resazurin-based viability assay; assay type: cell-based, human; conditions: 24 h, 1, 50 and 200 μg/mL
Description: as §3, §4

| SMILES | Fluorescence anisotropy of the DPH probe (RBCs membrane; 20 µM) | Fluorescence anisotropy of the DPH probe (RBCs membrane; 60 µM) | Fluorescence anisotropy of the DPH probe (RBCs membrane; 100 µM) | MIC50 (C. albicans 636/20) | MIC50 (C. albicans 595/20; 595/20, 24 h) | Effect on Caco-2 proliferation / viability (in words) (Caco-2 cells) | hemolysis at 1 h, 10 µM [1] | hemolysis at 1 h, 20 µM [1] | hemolysis at 1 h, 40 µM [1] | hemolysis at 1 h, 60 µM [1] | hemolysis at 1 h, 80 µM [1] | hemolysis at 1 h, 100 µM [1] | Effect on MG63 proliferation / viability (in words) (MG63 cells) | MIC50 (C. albicans strains) | Change in DPH anisotropy / RBCs membrane fluidity (in words) (RBCs membrane; RBCs, 20, 60 and 100 μM) | MIC50 (C. albicans 595/20; C. albicans 595/20, 24 h, 35°C, tested 10–250 μg/mL, read-out: MIC50) | Effect on HepG2 proliferation / viability (in words) (HepG2 cells) | MIC50 (C. albicans strains; C. albicans 595/20, 636/20 and 38) |
| --- | --- | --- | --- | --- | --- | --- | --- | --- | --- | --- | --- | --- | --- | --- | --- | --- | --- | --- |
| CC(O)C(O)c1ccc2c(c1)OCO2 (stereo not drawn) [1b, 1-(1,3-benzodioxol-5-yl)propane-1,2-diol] | 0.247 ± 0.018 | 0.274 ± 0.036 | 0.252 ± 0.012 | 177 µg/mL (≈ 902 µM) | 107 µg/mL (≈ 545 µM) | strongest inhibition | 2.28 ± 0.251% | 1.86 ± 0.293% | 1.98 ± 0.272% | 1.88 ± 0.251% | 2.39 ± 0.349% | 2.58 ± 0.321% | – | – | – | – | – | – |
| CC(O)C(=O)c1ccc2c(c1)OCO2 (stereo not drawn) [1c, 1-(1,3-benzodioxol-5-yl)-2-hydroxypropan-1-one] | 0.260 ± 0.011 | 0.267 ± 0.019 | 0.277 ± 0.078 | > 250 µg/mL | – | – | 1.46 ± 0.08% | 1.17 ± 0.02% | 1.81 ± 0.302% | 1.85 ± 0.027% | 1.41 ± 0.295% | 1.51 ± 0.576% | suppressed the proliferation | 178 to 200 µg/mL (≈ 917 to 1030 µM) | – | – | – | – |
| COc1ccc(C(O)C(C)O)cc1 (stereo not drawn) [3b, 1-(4-methoxyphenyl)propane-1,2-diol] | 0.272 ± 0.019 | 0.249 ± 0.083 | 0.262 ± 0.056 | – | – | strongest inhibition | 2.45 ± 0.509% | 2.98 ± 0.153% | 1.9 ± 0.209% | 2.29 ± 0.635% | 2.4 ± 0.209% | 2.6 ± 0.265% | suppressed the proliferation | – | an increase in anisotropy at lower concentrations and a decrease at higher concentrations | 47 µg/mL (≈ 258 µM) | significantly increased the proliferative potential | 47 to 76 µg/mL (≈ 258 to 417 µM) |
